# Results reported in PMC4457528, “Identification of Novel Small Molecule Inhibitors of Oncogenic RET Kinase” (PLoS ONE, 2015).
# Like-named read-outs stand apart in the source and are kept apart here.
# How the values were obtained:
# [1] = tested on: RAT RET/C634R cells; assay type: cell-based; conditions: low serum, last day values, 95% CI in brackets, read-out: Growth inhibition IC50 dose: RAT RET/C634R
# Method: (§1) To compare cell growth, we performed unpaired Student’s t test using the Instat software program (Graphpad Software Inc). P values were two-sided, and differences were considered statistically significant at P <.02. IC50 doses were calculated through a curve fitting analysis from last day values using the PRISM software program (Graphpad Software Inc).
# [2] = tested on: RAT1 cells; experiment: Growth curves, parental RAT1 cells; assay type: cell-based, rat; conditions: low serum
# Method: as §1
# [3] = target: T1, KinomeScan kinase panel (Homo sapiens, UniProt O75460); experiment: KinomeScan kinase panel, single concentration 10 µM; assay type: binding; conditions: ERN1, 10 µM; read-out: score (%)
# T1 construct: purchased DiscoveRx (KinomeScan)
# [4] = target: T2, KinomeScan kinase panel (Homo sapiens, UniProt P20794); experiment: as above; assay type: binding; conditions: MAK, 10 µM; read-out: score (%)
# T2 construct: purchased DiscoveRx (KinomeScan)
# [5] = target: T3, KinomeScan kinase panel (Homo sapiens, UniProt P21860); experiment: as above; assay type: binding; conditions: ERBB3, 10 µM; read-out: score (%)
# T3 construct: purchased DiscoveRx (KinomeScan)
# T3 sequence (P21860 20-1342): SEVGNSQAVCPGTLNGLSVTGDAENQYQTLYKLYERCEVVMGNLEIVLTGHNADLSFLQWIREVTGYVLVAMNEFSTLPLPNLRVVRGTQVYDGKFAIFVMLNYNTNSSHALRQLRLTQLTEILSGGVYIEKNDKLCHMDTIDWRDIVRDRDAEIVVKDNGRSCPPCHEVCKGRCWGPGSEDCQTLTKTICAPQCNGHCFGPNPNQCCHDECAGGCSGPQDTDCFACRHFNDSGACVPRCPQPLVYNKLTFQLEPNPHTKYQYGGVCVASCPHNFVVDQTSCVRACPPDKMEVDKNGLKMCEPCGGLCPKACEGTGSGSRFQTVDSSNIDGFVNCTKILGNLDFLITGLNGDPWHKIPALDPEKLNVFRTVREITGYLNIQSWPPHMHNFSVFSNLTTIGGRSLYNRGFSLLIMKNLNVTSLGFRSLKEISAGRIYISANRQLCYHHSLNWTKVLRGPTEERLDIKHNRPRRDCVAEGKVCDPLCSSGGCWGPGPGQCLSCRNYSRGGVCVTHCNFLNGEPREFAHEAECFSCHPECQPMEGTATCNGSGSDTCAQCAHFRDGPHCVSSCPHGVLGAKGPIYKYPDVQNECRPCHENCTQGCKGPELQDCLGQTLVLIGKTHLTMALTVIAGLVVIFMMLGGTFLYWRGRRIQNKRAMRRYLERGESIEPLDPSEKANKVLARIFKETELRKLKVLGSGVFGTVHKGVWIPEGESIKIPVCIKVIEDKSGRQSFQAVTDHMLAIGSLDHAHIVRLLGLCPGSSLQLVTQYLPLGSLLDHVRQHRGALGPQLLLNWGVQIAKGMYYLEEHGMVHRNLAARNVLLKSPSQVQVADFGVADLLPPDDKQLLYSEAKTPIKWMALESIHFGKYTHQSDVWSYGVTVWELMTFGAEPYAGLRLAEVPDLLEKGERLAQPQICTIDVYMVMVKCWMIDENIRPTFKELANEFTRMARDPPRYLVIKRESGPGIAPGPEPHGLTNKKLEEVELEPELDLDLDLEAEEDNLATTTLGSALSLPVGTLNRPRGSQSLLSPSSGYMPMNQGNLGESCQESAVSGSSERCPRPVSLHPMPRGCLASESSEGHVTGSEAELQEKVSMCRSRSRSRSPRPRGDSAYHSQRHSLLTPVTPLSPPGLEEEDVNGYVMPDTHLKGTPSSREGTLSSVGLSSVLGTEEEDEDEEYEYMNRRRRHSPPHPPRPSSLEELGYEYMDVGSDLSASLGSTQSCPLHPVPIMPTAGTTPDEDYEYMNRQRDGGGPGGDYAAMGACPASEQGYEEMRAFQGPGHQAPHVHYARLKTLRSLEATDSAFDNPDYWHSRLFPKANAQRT
# [6] = target: T4, KinomeScan kinase panel (Homo sapiens, UniProt P32298); experiment: as above; assay type: binding; conditions: GRK4, 10 µM; read-out: score (%)
# T4 construct: purchased DiscoveRx (KinomeScan)
# T4 sequence (P32298 whole entry): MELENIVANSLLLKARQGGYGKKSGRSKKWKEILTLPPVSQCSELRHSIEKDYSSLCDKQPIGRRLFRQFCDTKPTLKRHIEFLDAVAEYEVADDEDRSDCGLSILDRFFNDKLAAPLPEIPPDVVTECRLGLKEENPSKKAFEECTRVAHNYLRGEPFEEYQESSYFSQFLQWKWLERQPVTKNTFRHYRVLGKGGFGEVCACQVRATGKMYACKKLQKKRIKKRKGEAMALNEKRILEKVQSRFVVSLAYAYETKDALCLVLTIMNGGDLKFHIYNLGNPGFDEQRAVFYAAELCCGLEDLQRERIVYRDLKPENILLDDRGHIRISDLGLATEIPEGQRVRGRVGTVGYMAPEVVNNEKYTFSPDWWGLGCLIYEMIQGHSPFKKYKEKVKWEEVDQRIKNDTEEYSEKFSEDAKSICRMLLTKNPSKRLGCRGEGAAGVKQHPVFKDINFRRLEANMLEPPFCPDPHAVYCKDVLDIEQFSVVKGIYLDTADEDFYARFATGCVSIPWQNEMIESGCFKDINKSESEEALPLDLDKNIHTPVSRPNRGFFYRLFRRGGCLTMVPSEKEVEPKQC
# [7] = target: T5, KinomeScan kinase panel (Homo sapiens, UniProt P33981); experiment: as above; assay type: binding; conditions: kinase TTK; 10 µM; read-out: score (%)
# T5 construct: purchased DiscoveRx (KinomeScan)
# T5 sequence (P33981 1-857): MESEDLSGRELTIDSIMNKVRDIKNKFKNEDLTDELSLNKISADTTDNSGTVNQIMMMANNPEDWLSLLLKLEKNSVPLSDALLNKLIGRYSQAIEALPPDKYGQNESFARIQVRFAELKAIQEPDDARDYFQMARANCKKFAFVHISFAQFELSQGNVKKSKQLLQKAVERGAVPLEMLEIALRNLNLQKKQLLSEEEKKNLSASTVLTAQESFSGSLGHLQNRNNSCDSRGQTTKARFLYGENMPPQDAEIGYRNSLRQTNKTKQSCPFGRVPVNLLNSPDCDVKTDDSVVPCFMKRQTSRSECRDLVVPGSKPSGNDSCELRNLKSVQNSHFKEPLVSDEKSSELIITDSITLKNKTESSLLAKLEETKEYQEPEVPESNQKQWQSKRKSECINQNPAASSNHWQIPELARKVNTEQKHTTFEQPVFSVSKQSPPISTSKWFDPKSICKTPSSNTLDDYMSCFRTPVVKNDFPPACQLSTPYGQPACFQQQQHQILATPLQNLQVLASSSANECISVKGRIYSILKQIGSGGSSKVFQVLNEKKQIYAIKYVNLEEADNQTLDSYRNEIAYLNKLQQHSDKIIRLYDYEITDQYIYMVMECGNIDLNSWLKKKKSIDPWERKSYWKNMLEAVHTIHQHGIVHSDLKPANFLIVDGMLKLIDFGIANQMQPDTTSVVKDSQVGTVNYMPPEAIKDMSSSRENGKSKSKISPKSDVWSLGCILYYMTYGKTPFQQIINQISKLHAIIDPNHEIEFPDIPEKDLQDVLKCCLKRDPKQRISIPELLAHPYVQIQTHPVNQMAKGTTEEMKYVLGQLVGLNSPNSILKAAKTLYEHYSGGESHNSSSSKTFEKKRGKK
# [8] = target: T6, KinomeScan kinase panel (Homo sapiens, UniProt P42336, E545A); experiment: as above; assay type: binding; conditions: PIK3CA(E545A), 10 µM; read-out: score (%)
# T6 construct: purchased DiscoveRx (KinomeScan)
# [9] = target: T7, KinomeScan kinase panel (Homo sapiens, UniProt P57058); experiment: as above; assay type: binding; conditions: HUNK, 10 µM; read-out: score (%)
# T7 construct: purchased DiscoveRx (KinomeScan)
# [10] = target: T8, KinomeScan kinase panel (Homo sapiens, UniProt Q13523); experiment: as above; assay type: binding; conditions: read-out: score (%)
# T8 construct: purchased DiscoveRx (KinomeScan)
# [11] = target: T9, KinomeScan kinase panel (Homo sapiens, UniProt Q15835); experiment: as above; assay type: binding; conditions: GRK1, 10 µM; read-out: score (%)
# T9 construct: purchased DiscoveRx (KinomeScan)
# [12] = target: T10, KinomeScan kinase panel (Homo sapiens, UniProt Q52WX2); experiment: as above; assay type: binding; conditions: kinase SBK1; 10 µM; read-out: score (%)
# T10 construct: purchased DiscoveRx (KinomeScan)
# [13] = target: T11, KinomeScan kinase panel (Homo sapiens, UniProt Q6ZN16); experiment: as above; assay type: binding; conditions: MAP3K15, 10 µM; read-out: score (%)
# T11 construct: purchased DiscoveRx (KinomeScan)
# T11 sequence (Q6ZN16 whole entry): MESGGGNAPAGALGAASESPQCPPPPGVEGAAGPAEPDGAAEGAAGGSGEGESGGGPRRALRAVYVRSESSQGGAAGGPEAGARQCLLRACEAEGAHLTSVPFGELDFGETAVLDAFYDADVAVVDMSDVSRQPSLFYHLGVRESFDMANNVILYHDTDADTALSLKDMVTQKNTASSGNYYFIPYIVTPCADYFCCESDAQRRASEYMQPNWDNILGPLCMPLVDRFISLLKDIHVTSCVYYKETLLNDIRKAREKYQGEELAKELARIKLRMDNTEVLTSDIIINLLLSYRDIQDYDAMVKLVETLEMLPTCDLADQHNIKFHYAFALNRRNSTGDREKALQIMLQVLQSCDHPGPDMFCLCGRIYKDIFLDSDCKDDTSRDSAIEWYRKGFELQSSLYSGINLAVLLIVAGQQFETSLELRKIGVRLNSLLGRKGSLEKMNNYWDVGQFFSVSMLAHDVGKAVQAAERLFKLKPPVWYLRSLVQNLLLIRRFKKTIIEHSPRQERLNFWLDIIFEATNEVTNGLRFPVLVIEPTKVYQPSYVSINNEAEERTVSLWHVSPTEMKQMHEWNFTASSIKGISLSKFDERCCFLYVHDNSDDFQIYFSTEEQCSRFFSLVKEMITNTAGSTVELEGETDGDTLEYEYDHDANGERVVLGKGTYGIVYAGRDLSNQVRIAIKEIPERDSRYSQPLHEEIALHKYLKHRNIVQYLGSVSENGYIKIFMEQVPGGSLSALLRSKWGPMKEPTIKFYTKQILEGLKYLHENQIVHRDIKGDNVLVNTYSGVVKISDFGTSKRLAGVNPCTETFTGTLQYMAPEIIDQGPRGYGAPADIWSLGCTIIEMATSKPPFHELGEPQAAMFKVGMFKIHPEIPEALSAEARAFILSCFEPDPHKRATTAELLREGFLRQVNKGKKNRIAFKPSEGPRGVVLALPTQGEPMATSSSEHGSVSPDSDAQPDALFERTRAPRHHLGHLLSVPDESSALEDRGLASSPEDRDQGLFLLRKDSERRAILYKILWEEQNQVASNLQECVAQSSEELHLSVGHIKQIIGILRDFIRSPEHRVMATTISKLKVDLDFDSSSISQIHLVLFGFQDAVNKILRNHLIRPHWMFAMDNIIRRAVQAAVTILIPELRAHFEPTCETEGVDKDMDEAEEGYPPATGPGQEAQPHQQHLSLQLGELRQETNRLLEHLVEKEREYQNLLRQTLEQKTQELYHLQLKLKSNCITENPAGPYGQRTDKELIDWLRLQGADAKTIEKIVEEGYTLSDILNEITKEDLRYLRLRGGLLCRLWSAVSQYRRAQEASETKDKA
# [14] = target: T12, KinomeScan kinase panel (Homo sapiens, UniProt Q8IVW4); experiment: as above; assay type: binding; conditions: CDKL3, 10 µM; read-out: score (%)
# T12 construct: purchased DiscoveRx (KinomeScan)
# [15] = target: T13, KinomeScan kinase panel (Homo sapiens, UniProt Q8IY84); experiment: as above; assay type: binding; conditions: NIM1, 10 µM; read-out: score (%)
# T13 construct: purchased DiscoveRx (KinomeScan)
# T13 sequence (Q8IY84 whole entry): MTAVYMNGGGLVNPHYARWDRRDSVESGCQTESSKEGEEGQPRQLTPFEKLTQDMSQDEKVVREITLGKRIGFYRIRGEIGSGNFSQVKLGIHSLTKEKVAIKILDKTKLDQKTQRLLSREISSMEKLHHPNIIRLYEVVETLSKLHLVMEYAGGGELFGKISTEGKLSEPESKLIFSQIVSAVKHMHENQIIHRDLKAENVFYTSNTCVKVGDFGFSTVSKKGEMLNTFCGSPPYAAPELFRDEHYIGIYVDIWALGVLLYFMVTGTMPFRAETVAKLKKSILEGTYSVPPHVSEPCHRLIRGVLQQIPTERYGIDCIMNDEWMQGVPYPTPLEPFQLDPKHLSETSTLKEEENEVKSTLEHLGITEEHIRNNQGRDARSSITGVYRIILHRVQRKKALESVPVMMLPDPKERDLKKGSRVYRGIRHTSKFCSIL
# [16] = target: T14, KinomeScan kinase panel (Homo sapiens, UniProt Q8NE63); experiment: as above; assay type: binding; conditions: HIPK4, 10 µM; read-out: score (%)
# T14 construct: purchased DiscoveRx (KinomeScan)
# T14 sequence (Q8NE63 whole entry): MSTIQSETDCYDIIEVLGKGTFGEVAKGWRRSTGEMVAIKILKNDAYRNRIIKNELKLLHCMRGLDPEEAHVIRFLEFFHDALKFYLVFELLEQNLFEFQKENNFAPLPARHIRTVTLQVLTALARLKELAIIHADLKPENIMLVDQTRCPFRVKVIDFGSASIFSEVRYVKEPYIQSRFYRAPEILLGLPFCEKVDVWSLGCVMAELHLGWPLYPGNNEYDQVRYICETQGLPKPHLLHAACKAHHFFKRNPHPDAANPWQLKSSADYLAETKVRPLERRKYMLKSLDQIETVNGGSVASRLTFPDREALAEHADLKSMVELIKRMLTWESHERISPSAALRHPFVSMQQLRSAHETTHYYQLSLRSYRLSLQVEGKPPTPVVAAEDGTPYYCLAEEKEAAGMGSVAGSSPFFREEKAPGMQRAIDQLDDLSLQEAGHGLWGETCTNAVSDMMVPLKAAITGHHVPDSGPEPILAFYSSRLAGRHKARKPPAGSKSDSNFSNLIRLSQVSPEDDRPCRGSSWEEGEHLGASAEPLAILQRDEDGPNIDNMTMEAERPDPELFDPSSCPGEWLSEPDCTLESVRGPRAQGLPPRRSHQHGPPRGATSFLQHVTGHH
# [17] = target: T15, KinomeScan kinase panel (Homo sapiens, UniProt Q8WTQ7); experiment: as above; assay type: binding; conditions: GRK7, 10 µM; read-out: score (%)
# T15 construct: purchased DiscoveRx (KinomeScan)
# [18] = target: T16, KinomeScan kinase panel (Homo sapiens, UniProt Q9H422); experiment: as above; assay type: binding; conditions: HIPK3, 10 µM; read-out: score (%)
# T16 construct: purchased DiscoveRx (KinomeScan)
# [19] = target: T17, KinomeScan kinase panel (Homo sapiens, UniProt Q9UBF8); experiment: as above; assay type: binding; conditions: PIK4CB, 10 µM; read-out: score (%)
# T17 construct: purchased DiscoveRx (KinomeScan)
# T17 sequence (Q9UBF8 whole entry): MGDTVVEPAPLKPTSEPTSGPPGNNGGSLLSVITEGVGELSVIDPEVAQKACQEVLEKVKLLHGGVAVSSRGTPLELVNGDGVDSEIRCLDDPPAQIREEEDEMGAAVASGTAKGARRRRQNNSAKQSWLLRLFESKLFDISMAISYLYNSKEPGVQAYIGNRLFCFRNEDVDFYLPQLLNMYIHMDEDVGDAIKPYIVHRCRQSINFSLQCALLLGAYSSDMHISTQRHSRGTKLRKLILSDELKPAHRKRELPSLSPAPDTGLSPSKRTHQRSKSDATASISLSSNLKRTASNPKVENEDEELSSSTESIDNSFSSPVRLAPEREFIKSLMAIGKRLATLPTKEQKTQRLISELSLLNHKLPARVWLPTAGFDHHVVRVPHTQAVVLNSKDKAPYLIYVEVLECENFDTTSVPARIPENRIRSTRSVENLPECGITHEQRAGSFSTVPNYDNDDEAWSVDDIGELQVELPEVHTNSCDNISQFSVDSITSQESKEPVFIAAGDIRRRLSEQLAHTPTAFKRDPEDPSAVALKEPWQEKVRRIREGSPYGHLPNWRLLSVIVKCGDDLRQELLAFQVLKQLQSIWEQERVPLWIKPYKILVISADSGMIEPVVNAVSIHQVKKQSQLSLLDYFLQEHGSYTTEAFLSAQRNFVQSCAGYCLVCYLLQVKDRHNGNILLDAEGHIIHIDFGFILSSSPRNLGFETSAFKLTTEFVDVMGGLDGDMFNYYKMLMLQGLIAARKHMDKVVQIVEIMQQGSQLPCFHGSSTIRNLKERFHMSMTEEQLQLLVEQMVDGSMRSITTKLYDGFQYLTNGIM
# [20] = target: T18, KinomeScan kinase panel (Homo sapiens, UniProt Q9UEW8); experiment: as above; assay type: binding; conditions: kinase STK39; 10 µM; read-out: score (%)
# T18 construct: purchased DiscoveRx (KinomeScan)
# [21] = target: T19, KinomeScan kinase panel (Homo sapiens, UniProt Q9UPZ9); experiment: as above; assay type: binding; conditions: ICK, 10 µM; read-out: score (%)
# T19 construct: purchased DiscoveRx (KinomeScan)
# [22] = target: T20, KinomeScan kinase panel (Homo sapiens, UniProt Q9Y2H9); experiment: as above; assay type: binding; conditions: MAST1, 10 µM; read-out: score (%)
# T20 construct: purchased DiscoveRx (KinomeScan)
# [23] = target: T21, KinomeScan kinase panel (Homo sapiens, UniProt Q9Y2K2); experiment: as above; assay type: binding; conditions: 10 µM
# T21 construct: purchased DiscoveRx (KinomeScan)
# [24] = target: T22, KinomeScan kinase panel (Homo sapiens, UniProt Q9Y2U5); experiment: as above; assay type: binding; conditions: MAP3K2, 10 µM; read-out: score (%)
# T22 construct: purchased DiscoveRx (KinomeScan)
SMILES,IC50 [1] [nM],Growth inhibition IC50 dose: RAT1 [2],remaining binding at 10 µM [3] [%],remaining binding at 10 µM [4] [%],remaining binding at 10 µM [5] [%],remaining binding at 10 µM [6] [%],remaining binding at 10 µM [7] [%],remaining binding at 10 µM [8] [%],remaining binding at 10 µM [9] [%],remaining binding at 10 µM [11] [%],remaining binding at 10 µM [12] [%],remaining binding at 10 µM [13] [%],remaining binding at 10 µM [14] [%],remaining binding at 10 µM [15] [%],remaining binding at 10 µM [16] [%],remaining binding at 10 µM [17] [%],remaining binding at 10 µM [18] [%],remaining binding at 10 µM [19] [%],remaining binding at 10 µM [20] [%],remaining binding at 10 µM [21] [%],further results
CCN1CCN(Cc2ccc(NC(=O)c3ccc(C)c(NC(=O)c4cncc(-c5cccs5)c4)c3)cc2C(F)(F)F)CC1 [ALW-II-41-27],44,Not measurable,1.4,> 30,> 30,> 30,> 30,> 30,> 30,> 30,> 30,> 30,9.8,> 30,25,16,> 30,> 30,> 30,> 30,"remaining binding at 10 µM ([10]; PRP4, 10 µM): > 30%; remaining binding at 10 µM [22]: > 30%; score (%) ([23]; QSK): nb (Hits values higher than 30% were considered negative (no binding: nb)); remaining binding at 10 µM [24]: 3.8%"
"CCN1CCN(Cc2ccc(NC(=O)c3ccc(C)c(/C=C/c4cnc5[nH]ccc5c4Cl)c3)cc2C(F)(F)F)CC1 [HG-6-63-01, (E)-3-(2-(4-chloro-1H-pyrrolo[2,3-b]pyridin-5-yl)vinyl)-N-(4-((4-ethylpiperazin-1-yl)methyl)-3-(trifluoromethyl)phenyl)-4-methylbenzamide]",21,Not measurable,,,,,> 30,,,,,,,,,,,,,,
CCN1CCN(Cc2ccc(NC(=O)c3ccc(C)c(C#Cc4cccnc4)c3)cc2C(F)(F)F)CC1 [XMD15-44],11.5,Not measurable,> 30,9,> 30,> 30,16,93,> 30,> 30,88,> 30,0.65,97,2.2,> 30,18,100,89,> 30,"remaining binding at 10 µM ([10]; kinase PRP4, 10 µM): 54%; remaining binding at 10 µM [22]: > 30%; score (%) ([23]; kinase QSK): 70%; remaining binding at 10 µM [24]: 0.15%"
